Data published in publication PMC10298657, “QbD-Optimized, Phospholipid-Based Elastic Nanovesicles for the Effective Delivery of 6-Gingerol: A Promising Topical Option for Pain-Related Disorders” (International Journal of Molecular Sciences, 2023).

Test: ABTS radical scavenging activity
Format: biochemical
Conditions: ABTS assay
Procedure: The ability of the nanocarriers to scavenge the free radical ABTS was used to measure their antioxidant activity. To create an ABTS free radical, a stock solution of 7 mM ABTS was combined with 2.45 mM potassium persulfate and agitated in the dark for 12 h. […] Then, a standard solution (ascorbic acid) was mixed with the ABTS+ solution and incubated for 10 min in a 37 °C water bath. After that, various concentrations (10–100 µg/mL) of all samples were prepared in ethanol, 3 mL of the solution and 1 mL of the samples were combined, and the absorbance was measured at 734 nm using a UV spectrophotometer after 6 min [66]. Finally, the following equation was used to compute ABTS scavenging activity: Scavenging (%)=(Absorbance blank−Absorbance sample)/Absorbance blank×100

| Structure (SMILES) | Antioxidant activity (ABTS scavenging) |
| --- | --- |
| O=C1O[C@H]([C@@H](O)CO)C(O)=C1O [standard solution, ascorbic acid] | 91.14 ± 0.24% |
| CCCCC[C@H](O)CC(=O)CCc1ccc(O)c(OC)c1 [Formulation 6-G, 6-gingerol] | 67.01 ± 1.11% |
